# Experimental data published in patent US5229265A, “Process for analyzing clastogenic agents” (Litron Laboratories, priority 1990, dated 1993).
# “And” between values parts separate entries of the source, which are not always exact repeats. Equal values may be shown once.
# Tested on: polychromatic cells (PCEs)
# Experiment: PCE count in blood by flow cytometry
# Type: in vivo, mouse
# Details: MMS 100 μg/g body weight IP at 0 and 48 hours
# Method: When two dyes are used for simultaneous micronucleus and PCE discrimination, the cell suspension is prepared as follows: The Hoechst 33258 working solution described above is prepared and is filtered through an 0.2 micron Acro-disk (Gilman Sciences). In addition, a propidium iodide (PI) working solution is prepared (5 mg PI/100 ml phosphate buffered saline (PBS)). A buffer-dye solution is then prepared by adding the PI solution (100 μl) and Hoechst 33258 working solution (25 μl) to PBS (867.5 μl). The resulting buffer-dye solution is then dispensed (992.5 μl) into samples tubes. A sample of fixed blood (15 μl) is then added to the corresponding tube. When blood from a malaria (P. berghei) infected mouse was fixed and stained by this procedure, the bivariate pattern shown in FIG. 1B resulted, in which a stronger red fluorescence signal was obtained. In this case, good resolution is achieved if BSA is omitted from the stained cell suspension. The pH of the stained solution is important for good fluorescence emission profiles and resolution of the different cell populations. With Hoechst 33258 and propidium iodide, good results can be obtained in the range from pH 6 to pH 8. Lower or higher pH levels cause a broadening of the fluorescence patterns which adversely affect the resolution of the PCes and micronucleated cells. Operationally,it is advisable to store the fixed samples and analyze freshly stained samples.
# Although it is inappropriate to directly compare the number of MNs in the 0 hr and 96 hr samples because of this PCE change, it is possible to normalize the data to take into account said change. An increase in the number of PCEs will cause a decrease in the total number of MNs counted in the PCE window for a 96 hour sample. […]
# Another staining embodiment of this invention involves the use of dual parameter data acquisition in conjunction with two dyes, Hoechst 33258 and propidium iodide so as to analyze both MNs and PCEs. […] Propidium iodide endows the PCEs with a strong red fluorescence signal which pulls them out of the RBC contour. […]
smiles,measurement,setting,value
"COS(C)(=O)=O [MMS, methyl methanesulfonate]",PCEs (96 hr),Hoechst 33258 & propidium iodide,"17,684 PCEs per 500,000 cells and 15,408 PCEs per 500,000 cells and 13,095 PCEs per 500,000 cells and 14,356 PCEs per 500,000 cells"
same,PCE Factor (K) (96 hr/0 hr),"PCEs 96 hr/PCEs 0 hr per 100,000 total cells",2.49 and 1.36 and 2.07 and 2.22 and 2.12
